US4849409A, “Diels-alder adduct from streptazoline and naphthoquinones and its oxidation products, which have cytotoxic and antimicrobial activity and which act against protozoa” (Hoechst Aktiengesellschaft, priority 1986, dated 1989)
In brackets after ≈: the same amount, converted by molar mass. Where two headings read alike, the source gives them in different places.

Columns and labels:
L1210 leukemia cells = test: cells; type: cell-based, mouse; conditions: for IC50: Mus musculus
Protocol: The cytotoxic action of the compounds can be established in various test systems such as, for example, in the soft agar colony test on mouse leukemia cells in vitro.
Formation of colonies of L1210 leukemia cells in soft agar:
In this test, substances having cytostatic activity bring about a reduction in the observed number of colonies compared with an untreated control. The details of the test procedure are as follows:
500 L1210 leukemia cells per plate are incubated with various concentrations of the compound of the formula II, obtained as in Example 3, as test substance at 37° C. for 1 hour. The cells are then washed twice with McCoy 5A medium and finally, after addition of 0.3% agar, poured into Petri dishes. Controls are incubated merely with fresh medium. In addition, in place of the incubation for 1 hour, various concentrations of the test substance are admixed to the upper agar layer, in order thus to acheive continuous exposure of the cells throughout the incubation time. After the agar has solidified, the plates are incubated in an incubator at 37° C. for 7 days (5% CO2, 95% relative humidity). The number of resultant colonies with a diameter >60μ is then counted. The results are expressed as the quotient of the number of colonies on treated agar plates and the number of colonies on the untreated control. The IC50 was obtained, as a measure of the activity of the test substance, from the dose-effect curve thus obtained. The comparison substance used in this test is the cytostatic adriamycin.

[1] = in words; cited from earlier work
leukemia cells = conditions: cited from earlier work
[2] = L1210, 168 h, continuous exposure, substance in upper agar layer, 7 days at 37° C., read-out: Stem cell assay cont. IC50
[3] = L1210, incubation for 1 hour at 37° C., then washed, 7 days in agar, read-out: Stem cell assay 1 h IC50

Row | IC50 (L1210 leukemia cells; [2]) [µg/mL] | IC50 (L1210 leukemia cells; [3]) [µg/mL] | Compound | cytotoxicity (assessment) (L1210 leukemia cells) | antibiotic action [1] | cytotoxic action (leukemia cells)
1 | 0.04 (≈ 0.101 µM) | 0.26 (≈ 0.658 µM) | CC1C2=C(C(=O)c3c(O)ccc(O)c3C2=O)[C@@H]2CCN3C(=O)O[C@@H]4[C@@H](O)C1=C2[C@@H]43 (stereo partly shown) [Test substance] | cytotoxicity comparable to that of adriamycin |  | 
2 | 0.02 (≈ 0.0368 µM) | 0.04 (≈ 0.0736 µM) | COc1cccc2c1C(=O)c1c(O)c3c(c(O)c1C2=O)C[C@@](O)(C(=O)CO)C[C@@H]3O[C@H]1C[C@H](N)[C@H](O)[C@H](C)O1 [Adriamycin] |  |  | 

Row | Compound | IC50 (L1210 leukemia cells; [2]) [µg/mL] | IC50 (L1210 leukemia cells; [3]) [µg/mL] | cytotoxicity (assessment) (L1210 leukemia cells) | antibiotic action [1] | cytotoxic action (leukemia cells)
3 | CC=C1C2=CCCN3C(=O)OC(C1O)C23 (stereo not shown) [Streptazoline] | 10 (≈ 48.3 µM) | 10 (≈ 48.3 µM) | no cytotoxicity worthy of note | only a very weak antibiotic | no cytotoxic action
